Assay results taken from patent publication US20260216182A1, “PYRIDAZINE NLRP3 INHIBITOR COMPOUND, PHARMACEUTICAL COMPOSITION, AND PREPARATION METHOD THEREFOR AND USE THEREOF” (CHANGCHUN GENESCIENCE PHARMACEUTICAL CO., LTD., priority 2022, published 2026).
Where two headings read alike, the source gives them in different places.

Experiments:
[1] = biological target: T1, NLRP3 (Homo sapiens, UniProt Q96P20); assay: IC50 of NLRP3 inhibitors in reducing IL-1β secretion by THP-1 cells (PMA, LPS, nigericin; ELISA); type: cell-based; conditions: compound + nigericin 1 h
T1 construct: endogenous in cells; host or cells: THP-1 (human monocyte, PMA-differentiated, LPS-primed, nigericin-stimulated)
Protocol: Test Example 1 Experiment on Detection of IC50 of NLRP3 Inhibitors in Reducing the Level of IL-1β Secretion by THP-1 Cells
In this experiment, we use the human monocyte THP-1 to study the inhibitory activity of NLRP3 inhibitor on the secretion of IL-Iβ by cells. Human THP-1 cells are treated with crotonol-12-tetradecanoate-13-acetate (PMA) to differentiate into mature macrophage models. Then, according to the two stages of inflammasome formation in cells (assembly and activation), the cells are stimulated with lipopolysaccharide (LPS) and nigericin in turn, ultimately promoting the extracellular release of IL-1β by THP-1 cells. The first stage of inflammasome formation involves stimulating cells with LPS (lipopolysaccharide), an agonist of the Toll-like receptor TLR4, to activate the expression of the inflammasome-associated proteins NLRP3, caspase 1, and pro-IL-1β, a precursor of IL-1β. The second stage of inflammasome formation involves the addition of the potassium ion carrier nigericin, which causes a series of membrane potential changes in THP-1 cells, destroys the cell membrane structure, causes the efflux of cellular potassium ions, further stimulates the oligomerization of NLRP3 monomers to form NLRP3 oligomers, and begins to recruit ASC and pro-caspase-1 to assemble the NLRP3 inflammasome complex containing a large amount of pro-caspase-1. The pro-caspase-1 on the activated NLRP3 inflammasome is enzymatically self-activated to form a large amount of active caspase-1. The activated caspase-1 further enzymatically promotes the conversion of pro-IL-1β into mature IL-1β that can be secreted.
(1) Cell suspensions were collected. The cells were centrifuged at 1000 rpm for 4 min, the supernatant was discarded, the cells were resuspended with 1 mL of test medium, and then the cell culture medium was gently pipetted up and down with a pipette and its tip to break up the cell aggregates. After counting the cells, the THP-1 cells were resuspended with complete RPMI medium 1640 containing PMA and seeded into 96-well plates and cultured in a 37° C., 5% CO2 incubator for 72 h.
(2) The culture medium was taken out from each well with an automatic plate washer dispenser EL406 and each well was rinsed twice with PBS. To each well, 96 μL of RPMI 1640 medium containing LPS was added. The cells were cultured in a 37° C., 5% CO2 incubator for 4 h.
(3) To each well, 2 μL of the compound and 2 μL of nigericin sodium salt were added, and the final compound concentration selected was 5000 nM, 1000 nM, 200 nM, 40 nM, 8 nM, 1.6 nM, 0.32 nM, 0 nM, respectively. The cells were cultured in a 37° C., 5% CO2 incubator for 1 h.
(4) An appropriate amount of supernatant was taken out, diluted 100 times, and the content of IL-1β in the supernatant was detected using Human IL-1 beta Valukine ELISA kit.

[2] = system: IL-1β; assay: Mouse acute peritonitis model (LPS/ATP), IL-1β in peritoneal lavage fluid and blood; type: in vivo, C57BL/6 mice; conditions: 10 mg/kg oral; for inhibition at 10 mg/kg: Mus musculus, vs vehicle group
Protocol: Test Example 2: Mouse Acute Peritonitis Model Evaluation Experiment
Male C57BL/6 mice were orally administered with a 10 mg/kg dose of the test compound or control vehicle, and then injected intraperitoneally with 1 μg of E. coli 055: B5 ultrapure lipopolysaccharide (LPS) suspension 1 h later, followed by an intraperitoneal injection of 0.5 ml of 30 mM disodium salt ATP suspension (in PBS, the pH of the ATP solution was adjusted to 7.2 before injection) 2 h later. After 30 min, all animals would be euthanized by carbon dioxide, and blood and peritoneal lavage fluid would be collected. The peritoneal lavage fluid was kept at 4° C.
Preparation of peritoneal lavage fluid: The peritoneal cavity would be lavaged with ice-cold PBS (3 mL) containing 25 U/mL heparin and 10% heat-inactivated FBS. Prior to use, one tablet of the protease inhibitor mixture was added per 50 mL of buffer. The collected lavage fluid would be centrifuged (centrifugation conditions: 1000g, 4° C., 10 min) to remove cells and cell debris, and the clarified samples would be stored at −80° C. for measurement of cytokine IL-1β.
The mouse IL-1β/IL-1F2 DuoSet ELISA kit (R&D Systems) was used to measure the changes in IL-1β cytokine levels in peritoneal lavage fluid and serum. By comparing with the Vehical group, the inhibition rate of the compound on IL-1β was calculated.

[3] = system: MSU-induced acute rat gouty arthritis model; assay: MSU-induced rat acute gouty arthritis model; type: in vivo, SD rats; conditions: FIG. 1
Protocol: Test Example 3 MSU-Induced Rat Gouty Arthritis Model Evaluation Test
In this test, male SD rats were used to establish an acute gouty arthritis model by injecting 64 mg/mL sodium urate (MSU) crystal suspension into the right hind ankle joint cavity of the rats. The animals were randomly divided into normal control group, model control group, different dose groups of test compound, 7 rats in each group. The compound group was orally administered with the compound 1 h before and after modeling, and the normal control group and model control group were given an equal amount of vehicle. The foot circumference and foot diameter were measured before and 24 h after modeling.

[4] = system: IL-1β; assay: Zymosan A-induced rat pericarditis model; type: in vivo, SD rats
Protocol: Test Example 5 Zymosan A-Induced Rat Pericarditis Model Test
In this experiment, SD rats were used and 150 μL of a mixture of 50 mg/mL ZymosanA and normal saline was injected into the pericardial cavity to induce a rat pericarditis model and conduct a pharmacodynamic observation experiment. The day of modeling was designated as Day 1. The animals were weighed and randomly divided into groups one day before modeling, namely, G1 normal group, G2 model group, G3 compound 062-10 mg/kg group, G4 compound 062-30 mg/kg group, G5 colchicine-100 μg/kg group, with 7+1* animals in each group (one extra animal was reserved for each group, considering that animals may die during model establishment). After the model was established, oral administration began, once a day, for 7 consecutive days. At the end of the experiment, the animals were euthanized, the muscles were cut open at the third and fourth rib regions to expose the heart, the pericardium was carefully lifted with forceps, and as much pericardial effusion (if any) as possible was extracted with a 1 ml syringe. The pericardial effusion was centrifuged at 5000 rpm at 4° C. for 5 min, and the supernatant was frozen at −80° C. for later detection of IL-1β levels. After the pericardial effusion was collected, the heart was perfused and removed (while ensuring the integrity of the pericardium), fixed with 10% formalin for subsequent pathological examination.

T1 sequence (Q96P20 whole entry): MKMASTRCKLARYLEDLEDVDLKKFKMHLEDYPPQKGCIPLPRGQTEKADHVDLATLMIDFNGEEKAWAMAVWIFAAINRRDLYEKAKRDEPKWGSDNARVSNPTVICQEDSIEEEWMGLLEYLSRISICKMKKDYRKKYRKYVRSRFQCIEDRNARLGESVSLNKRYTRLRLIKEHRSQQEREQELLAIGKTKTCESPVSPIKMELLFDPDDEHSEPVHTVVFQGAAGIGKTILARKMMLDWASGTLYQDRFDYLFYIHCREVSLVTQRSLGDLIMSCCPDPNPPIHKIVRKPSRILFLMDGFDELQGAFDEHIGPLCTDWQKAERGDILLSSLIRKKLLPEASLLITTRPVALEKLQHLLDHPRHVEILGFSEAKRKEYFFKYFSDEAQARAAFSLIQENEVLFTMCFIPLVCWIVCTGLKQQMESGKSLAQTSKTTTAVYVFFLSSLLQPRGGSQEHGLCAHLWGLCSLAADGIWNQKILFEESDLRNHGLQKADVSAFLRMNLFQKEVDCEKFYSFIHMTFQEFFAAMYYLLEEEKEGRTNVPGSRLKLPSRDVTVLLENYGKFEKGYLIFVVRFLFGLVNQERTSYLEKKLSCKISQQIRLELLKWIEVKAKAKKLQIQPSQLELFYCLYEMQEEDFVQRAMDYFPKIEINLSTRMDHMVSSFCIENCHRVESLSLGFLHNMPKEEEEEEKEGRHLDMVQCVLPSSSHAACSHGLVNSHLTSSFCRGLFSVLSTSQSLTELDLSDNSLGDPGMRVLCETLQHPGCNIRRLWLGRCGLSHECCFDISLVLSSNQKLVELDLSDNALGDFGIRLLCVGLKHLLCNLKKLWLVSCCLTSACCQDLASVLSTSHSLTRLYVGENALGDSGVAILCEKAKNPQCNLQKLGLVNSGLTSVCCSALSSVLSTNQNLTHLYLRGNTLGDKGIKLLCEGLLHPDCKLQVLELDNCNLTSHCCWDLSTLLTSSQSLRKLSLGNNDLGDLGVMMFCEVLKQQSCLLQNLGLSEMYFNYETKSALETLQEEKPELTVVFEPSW

## CC#Cc1ccc2c(-c3ccc(Cl)cc3O)nnc(NC[C@H](O)CO)c2c1 [Compound 062, (S)-3-((4-(4-chloro-2-hydroxyphenyl)-7-(prop-1-yn-1-yl)phthalazin-1-yl)amino) propan-1,2-diol]
[1]
  IC50: 9.7 nM
[2]
  inhibitory effect on IL-1β in the in vivo animal model (in words): Conclusion: Some compounds showed inhibitory effects on IL-1β in the in vivo animal model evaluation experiment, among which compound 062 had the most significant inhibitory effect.
[2]; read-out: IL-1β Peritoneal lavage fluid (inhibition rate)
  inhibition at 10 mg/kg: 94%
[2]; read-out: IL-1β Plasma (inhibition rate)
  inhibition at 10 mg/kg: 96%
[3]
  effect on ankle joint swelling compared with control compound: significantly better than that of the control compound
[3]; oral, 1 h before and after modeling, 24 h after modeling
  ankle joint swelling: dose-dependent improvement in ankle joint swelling
[4]; 10 and 30 mg/kg oral once a day, 7 days, FIG. 3
  degree of pericardial inflammation: improved the degree of pericardial inflammation
[4]; 10 and 30 mg/kg oral once a day, 7 days, FIG. 4
  production of IL-1β in the pericardium and pericardial effusion: significantly inhibited the production of IL-1β in the pericardium and pericardial effusion
[4]; colchicine 100 μg/kg
  effect compared with colchicine: comparable to that of colchicine
